Columns and labels:
[1] = tested on: Oenococcus oeni DSM 20252; experiment: Agar plate count after contact with antifungal; format: cell-based
Excerpt: (§1) The word “bactericide” refers to a treatment having the effect of reducing a bacterial population by at least three decimal logarithms of colony forming units/ml on an agar plate count of a sample after treatment.
(§2) The toxicity results on yeasts and on bacteria are presented in the table below displaying the duration of exposure of the fungal flora to molecule A1 and the associated fluorescence measurement: yeasts lysis after exposure to the antifungal was confirmed by microscopic examination and methylene blue staining.
(§3) The words “contact time” refer to below, the time of exposure of the microorganisms to the fungicidal product, here molecule A1.
(§4) Below: “No CFU” is the abbreviation for “No Colony forming unit on agar plate count”.
(§5) The toxicity results on yeasts and on bacteria are presented in the table below displaying the duration of exposure of the fungal flora to the molecule A2 and are obtained by enumeration on MRS agar media.

Pedicoccus damnosus IFBM = experiment: Agar plate count after contact with antifungal; format: cell-based
Excerpt: as §1, §2, §3, §4, §5

[2] = tested on: Lactobacillus parabuchneri DSM 5708; experiment: Agar plate count after contact with antifungal; format: cell-based; conditions: count at contact time 0 h 1.4.10^6 CFU/mL
Excerpt: as §1, §2, §3, §4, §5

Dekkera anomala IFBM = experiment: Agar plate count after contact with antifungal; format: cell-based
Excerpt: as §1, §2, §3, §4, §5

[3] = tested on: Lactobacillus paracasei IFBM; experiment: Agar plate count after contact with antifungal; format: cell-based; conditions: count at contact time 0 h 1.4.10^7 CFU/mL
Excerpt: as §1, §2, §3, §4, §5

[4] = tested on: Lactobacillus brevis IFBM; experiment: Agar plate count after contact with antifungal; format: cell-based; conditions: count at contact time 0 h 7.10^5 CFU/mL
Excerpt: as §1, §2, §3, §4, §5

[5] = tested on: Lactobacillus lindneri DSM 20690; experiment: Agar plate count after contact with antifungal; format: cell-based
Excerpt: as §1, §2, §3, §4, §5

[6] = tested on: Acetobacter aceti DSM 3508; experiment: Agar plate count after contact with antifungal; format: cell-based; conditions: count at contact time 0 h 2.9.10^7 CFU/mL
Excerpt: as §1, §2, §3, §4, §5

[7] = tested on: Brettanomyces bruxellensis Wyeast labs; experiment: Agar plate count after contact with antifungal; format: cell-based
Excerpt: as §1, §2, §3, §4, §5

Sacch. Diastaticus IFBM = experiment: Agar plate count after contact with antifungal; format: cell-based, Saccharomyces diastaticus
Excerpt: as §1, §2, §3, §4, §5

[8] = tested on: lactic acid bacteria and acetic acid bacteria; experiment: Bactericidal action on the bacterial flora (conclusion from agar plate counts); format: cell-based; conditions: for Bactericidal action on lactic acid and acetic acid flora: bactericide = reduction by at least three decimal logarithms of CFU/ml
Excerpt: as §1, §2, §5

G. oxydans DSM 7145 = experiment: Agar plate count after contact with antifungal; format: cell-based, Gluconobacter oxydans
Excerpt: as §1, §2, §3, §4, §5

[9] = tested on: Sacch. Cerevisae DSM 70449; experiment: Agar plate count after contact with antifungal; format: cell-based, Saccharomyces cerevisae; conditions: for Agar plate count contact time 4 h: 400 mg/L
Excerpt: as §1, §2, §3, §4, §5

[10] = tested on: yeast populations versus lactic acid and acetic acid bacteria; experiment: Concentration threshold for being antifungal while non-bactericidal; format: cell-based; conditions: estimated
Procedure: It is estimated that for the molecule A1 the concentration threshold allowing to obtain the effect of the invention of being non-bactericidal for the lactic acid and acetic acid bacteria while being antifungal for the yeast populations is comprised within 50 mg/l or 50 mg/l and 100 mg/l.
In order to determine whether a particular molecule is suitable for the invention, a person skilled in the art may constitute a first list of antifungal products and a second list of non-bactericidal products for bacteria and select the products appearing in the first and second list for which the fungicidal activity intervenes prior to the bactericidal activity. However, an experimental verification of the fungicidal activity will be necessary to determine the minimum antifungal concentration per mg/L or in microgram per milliliter depending on the targeted fungal flora.

[11] = tested on: Zyggosaccharomyces bailii; experiment: Agar plate count after contact with antifungal; format: cell-based; conditions: 400 mg/L
Excerpt: as §1, §2, §3, §4, §5

[12] = tested on: Sacch. Cerevisae Saflager S23; experiment: Agar plate count after contact with antifungal; format: cell-based, Saccharomyces cerevisae; conditions: 400 mg/L
Excerpt: as §1, §2, §3, §4, §5

[13] = 400 mg/L, count at contact time 0 h 4.10^7 CFU/mL
[14] = 400 mg/L, count at contact time 0 h 1.1.10^5 CFU/mL
[15] = 400 mg/L, count at contact time 0 h 6.10^5 CFU/mL
[16] = 400 mg/L, count at contact time 0 h 8.10^7 CFU/mL
[17] = 200 mg/L, count at contact time 0 h 4.10^9 CFU/mL
[18] = 200 mg/L, count at contact time 0 h 7.2.10^5 CFU/mL
[19] = 200 mg/L, count at contact time 0 h 6.10^6 CFU/mL
[20] = 200 mg/L, count at contact time 0 h 8.10^8 CFU/mL
[21] = count at contact time 0 h 2.10^5 CFU/mL

C[C@@H]1C[C@@H]([C@H](O)CC2CC(=O)NC(=O)C2)C(=O)[C@@H](C)C1 [Molecule A4, cycloheximide]
Agar plate count contact time 18 h [1, 13]: 1.10^8 CFU/mL | Agar plate count contact time 18 h (Pedicoccus damnosus IFBM; [14]): 4.10^4 CFU/mL | Agar plate count contact time 18 h ([2]; 400 mg/L): 6.10^6 CFU/mL | Agar plate count contact time 18 h (Dekkera anomala IFBM; Test No 2: 400 mg/L, count at contact time 0 h 1.10^5 CFU/mL): 1.2.10^1 CFU/mL | Agar plate count contact time 18 h ([3]; 400 mg/L): 3.10^7 CFU/mL | Agar plate count contact time 18 h ([4]; 400 mg/L): 2.10^6 CFU/mL | Agar plate count contact time 18 h [5, 15]: 1.10^5 CFU/mL | Agar plate count contact time 18 h ([6]; 400 mg/L): 9.10^7 CFU/mL | Agar plate count contact time 18 h ([7]; Test No 2: 400 mg/L, count at contact time 0 h 7.3.10^5 CFU/mL): No CFU | Agar plate count contact time 18 h (Sacch. Diastaticus IFBM; Test No 2: 400 mg/L, count at contact time 0 h 4.10^4 CFU/mL): No CFU | Effect on bacteria cell integrity ([8]; doses of 400 mg/liter or more): preserves bacteria cell integrity | Agar plate count contact time 18 h (G. oxydans DSM 7145; [16]): 1.10^8 CFU/mL | Agar plate count contact time 18 h ([9]; Test No 2: 400 mg/L, count at contact time 0 h 5.10^4 CFU/mL): No CFU | Concentration threshold allowing to obtain the effect of the invention [10]: greater than 300 mg/l

CCC(C)(C)c1ccc(CC(C)CN2C[C@@H](C)O[C@@H](C)C2)cc1 (some centres unmarked) [Molecule A2, Amorolfine]
Agar plate count contact time 4 h [1, 17]: 6.10^9 CFU/mL | Agar plate count contact time 4 h [1, 13]: 5.10^7 CFU/mL | Agar plate count contact time 4 h (Pedicoccus damnosus IFBM; [18]): 1.5.10^5 CFU/mL | Agar plate count contact time 4 h (Pedicoccus damnosus IFBM; [14]): 1.10^4 CFU/mL | Agar plate count contact time 4 h ([2]; 200 mg/L): 5.10^5 CFU/mL | Agar plate count contact time 4 h ([2]; 400 mg/L): 3.10^4 CFU/mL | Agar plate count contact time 4 h (Dekkera anomala IFBM; 400 mg/L, count at contact time 0 h 5.10^3 CFU/mL): No CFU | Agar plate count contact time 4 h ([3]; 200 mg/L): 5.10^7 CFU/mL | Agar plate count contact time 4 h ([3]; 400 mg/L): 4.10^7 CFU/mL | Agar plate count contact time 4 h ([4]; 200 mg/L): 1.10^6 CFU/mL | Agar plate count contact time 4 h ([4]; 400 mg/L): 8.10^5 CFU/mL | Agar plate count contact time 4 h [5, 19]: 1.10^6 CFU/mL | Agar plate count contact time 4 h [5, 15]: 5.10^5 CFU/mL | Agar plate count contact time 4 h ([6]; 200 mg/L): 6.10^6 CFU/mL | Agar plate count contact time 4 h ([6]; 400 mg/L): 9.10^6 CFU/mL | Agar plate count contact time 4 h [7, 19]: No CFU | Agar plate count contact time 4 h ([7]; 400 mg/L, count at contact time 0 h 1.8.10^6 CFU/mL): No CFU | Agar plate count contact time 4 h ([11]; count at contact time 0 h 2.2.10^6 CFU/mL): No CFU | Agar plate count contact time 4 h (Sacch. Diastaticus IFBM; 400 mg/L, count at contact time 0 h 2.10^6 CFU/mL): No CFU | Bactericidal action on lactic acid and acetic acid flora ([8]; doses of 200 mg/liter): neither bactericidal for the lactic acid flora nor bactericidal for the acetic acid flora | Bactericidal action on lactic acid and acetic acid flora ([8]; doses of 400 mg/liter): neither bactericidal for the lactic acid flora nor bactericidal for the acetic acid flora | Agar plate count contact time 4 h (G. oxydans DSM 7145; [20]): 1.10^9 CFU/mL | Agar plate count contact time 4 h (G. oxydans DSM 7145; [16]): 9.10^7 CFU/mL | Agar plate count contact time 4 h ([12]; count at contact time 0 h 3.2.10^5 CFU/mL): No CFU | Agar plate count contact time 4 h ([9]; count at contact time 0 h 5.8.10^5 CFU/mL): No CFU

C[C@@H](c1ncncc1F)[C@](O)(Cn1cncn1)c1ccc(F)cc1F [Molecule A3, voriconazole]
Agar plate count contact time 18 h [1, 17]: 6.10^9 CFU/mL | Agar plate count contact time 18 h [1, 13]: 1.10^8 CFU/mL | Agar plate count contact time 18 h (Pedicoccus damnosus IFBM; [18]): 1.5.10^5 CFU/mL | Agar plate count contact time 18 h (Pedicoccus damnosus IFBM; [14]): 2.10^4 CFU/mL | Agar plate count contact time 18 h ([2]; 200 mg/L): 5.10^5 CFU/mL | Agar plate count contact time 18 h ([2]; 400 mg/L): 6.10^5 CFU/mL | Agar plate count contact time 18 h (Dekkera anomala IFBM; 400 mg/L, count at contact time 0 h 7.10^5 CFU/mL): No CFU | Agar plate count contact time 18 h ([3]; 200 mg/L): 5.10^7 CFU/mL | Agar plate count contact time 18 h ([3]; 400 mg/L): 2.10^7 CFU/mL | Agar plate count contact time 18 h ([4]; 200 mg/L): 1.10^6 CFU/mL | Agar plate count contact time 18 h ([4]; 400 mg/L): 1.10^6 CFU/mL | Agar plate count contact time 18 h [5, 19]: 1.10^6 CFU/mL | Agar plate count contact time 18 h [5, 15]: 7.10^4 CFU/mL | Agar plate count contact time 18 h ([6]; 200 mg/L): 6.10^6 CFU/mL | Agar plate count contact time 18 h ([6]; 400 mg/L): 4.10^7 CFU/mL | Agar plate count contact time 18 h [7, 19]: 9.10^1 CFU/mL | Agar plate count contact time 18 h ([7]; 400 mg/L, count at contact time 0 h 8.10^4 CFU/mL): No CFU | Agar plate count contact time 18 h (Sacch. Diastaticus IFBM; 400 mg/L, count at contact time 0 h 1.10^4 CFU/mL): No CFU | Bactericidal action on lactic acid and acetic acid flora ([8]; doses of 200 mg/liter): neither bactericidal for the lactic acid flora nor bactericidal for the acetic acid flora | Bactericidal action on lactic acid and acetic acid flora ([8]; doses of 400 mg/liter): neither bactericidal for the lactic acid flora nor bactericidal for the acetic acid flora | Agar plate count contact time 18 h (G. oxydans DSM 7145; [20]): 1.10^9 CFU/mL | Agar plate count contact time 18 h (G. oxydans DSM 7145; [16]): 1.10^8 CFU/mL

CC[C@H](C)C[C@H](C)CCCCCCCCC(=O)N[C@H]1C[C@@H](O)[C@@H](NCCN)NC(=O)[C@@H]2[C@@H](O)CCN2C(=O)[C@H]([C@H](O)CCN)NC(=O)[C@H]([C@H](O)[C@@H](O)c2ccc(O)cc2)NC(=O)[C@@H]2C[C@@H](O)CN2C(=O)[C@H]([C@@H](C)O)NC1=O [Molecule A5, caspofungin]
Agar plate count contact time 4 h [1, 17]: 6.10^9 CFU/mL | Agar plate count contact time 4 h [1, 13]: 5.10^7 CFU/mL | Agar plate count contact time 4 h (Pedicoccus damnosus IFBM; [18]): No CFU | Agar plate count contact time 4 h (Pedicoccus damnosus IFBM; [14]): No CFU | Agar plate count contact time 4 h ([2]; 200 mg/L): No CFU | Agar plate count contact time 4 h ([2]; 400 mg/L): No CFU | Agar plate count contact time 4 h (Dekkera anomala IFBM; 400 mg/L, count at contact time 0 h 1.4.10^4 CFU/mL): No CFU | Agar plate count contact time 4 h ([3]; 200 mg/L): 1.1.10^4 CFU/mL | Agar plate count contact time 4 h ([3]; 400 mg/L): 1.10^2 CFU/mL | Agar plate count contact time 4 h ([4]; 200 mg/L): 1.10^2 CFU/mL | Agar plate count contact time 4 h ([4]; 400 mg/L): 2.10^2 CFU/mL | Agar plate count contact time 4 h [5, 19]: 9.10^1 CFU/mL | Agar plate count contact time 4 h [5, 15]: 1.10^2 CFU/mL | Agar plate count contact time 4 h ([6]; 200 mg/L): 1.10^5 CFU/mL | Agar plate count contact time 4 h ([6]; 400 mg/L): 2.10^6 CFU/mL | Agar plate count contact time 4 h [7, 19]: No CFU | Agar plate count contact time 4 h ([7]; 400 mg/L, count at contact time 0 h 1.7.10^4 CFU/mL): No CFU | Agar plate count contact time 4 h [11, 21]: No CFU | Agar plate count contact time 4 h (Sacch. Diastaticus IFBM; 400 mg/L, count at contact time 0 h 4.10^4 CFU/mL): No CFU | Bactericidal action on acetic acid bacteria and the lactic acid bacteria oenooccus oeni ([8]; doses of 200 mg/liter): non-bactericidal | Bactericidal action on acetic acid bacteria and the lactic acid bacteria oenooccus oeni ([8]; doses of 400 mg/liter): non-bactericidal | Agar plate count contact time 4 h (G. oxydans DSM 7145; [20]): 1.10^9 CFU/mL | Agar plate count contact time 4 h (G. oxydans DSM 7145; [16]): 9.10^7 CFU/mL | Agar plate count contact time 4 h ([12]; count at contact time 0 h 3.10^5 CFU/mL): No CFU | Agar plate count contact time 4 h [9, 21]: No CFU

From patent US20180037923A1, “SELECTIVE DETECTION OF LACTIC ACID AND/OR ACETIC ACID BACTERIA OR OF FUNGI” (priority 2015, published 2018)
